Laboratory results from publication PMC3559838 (PLoS ONE, 2013).
Where two headings read alike, the source gives them in different places.

What was measured:
[1] = set-up: method as in Investigator's Brochure, 2004; conditions: rats, 100 mg/kg/day, both formulations; ref Investigator's Brochure, 2004; cited from earlier work
UGT1A9 = biological target: T1, UGT1A9 (Homo sapiens, UniProt O60656); test: UGT supersome screening; assay type: in vitro ADME; conditions: UGT1A9 supersomes, 10 µM belinostat, 37°C
T1 construct: purchased BD Gentest
Procedure: (§1) Before the addition of substrate, the incubation mixture was prewarmed and equilibrated for 5 min at 37°C. […] The incubation mixture was vortexed and centrifuged (10,060 g) at 4°C for 10 min, and the supernatants were analyzed. Insect microsomes without UGT cDNA served as negative control. […] Incubations were performed as described above. Three independent experiments were performed for kinetic analysis.

UGT1A7 = biological target: T2, UGT1A7 (Homo sapiens, UniProt Q9HAW7); test: UGT supersome screening; assay type: in vitro ADME; conditions: UGT1A7 supersomes, 10 µM belinostat, 37°C
T2 construct: purchased BD Gentest
Procedure: as §1

UGT2B17 = biological target: T3, UGT2B17 (Homo sapiens, UniProt O75795); test: UGT supersome screening; assay type: in vitro ADME; conditions: UGT2B17 supersomes, 10 µM belinostat, 37°C
T3 construct: purchased BD Gentest
Procedure: as §1

UGT1A10 = biological target: T4, UGT1A10 (Homo sapiens, UniProt Q9HAW8); test: UGT supersome screening; assay type: in vitro ADME; conditions: UGT1A10 supersomes, 10 µM belinostat, 37°C
T4 construct: purchased BD Gentest
Procedure: as §1

UGT1A4 = biological target: T5, UGT1A4 (Homo sapiens, UniProt P22310); test: UGT supersome screening; assay type: in vitro ADME; conditions: UGT1A4 supersomes, 10 µM belinostat, 37°C
T5 construct: purchased BD Gentest
Procedure: as §1

UGT1A6 = biological target: T6, UGT1A6 (Homo sapiens, UniProt P19224); test: UGT supersome screening; assay type: in vitro ADME; conditions: UGT1A6 supersomes, 10 µM belinostat, 37°C
T6 construct: purchased BD Gentest
Procedure: as §1

UGT2B15 = biological target: T7, UGT2B15 (Homo sapiens, UniProt P54855); test: UGT supersome screening; assay type: in vitro ADME; conditions: UGT2B15 supersomes, 10 µM belinostat, 37°C
T7 construct: purchased BD Gentest
Procedure: as §1

[2] = set-up: method as in Plumb et al., 2003; conditions: dogs, 45 minute IV infusion of 50 mg/kg; ref Plumb et al., 2003; cited from earlier work
[3] = test system: Histone H3 acetylation (Ac-H3 [K9/K14]) in HepG2 cells; test: Western blot of acetyl histone H3; assay type: cell-based, human; conditions: dose increment after 5 h, time course at 10 µM
Procedure: Protein concentrations were quantified using the Bradford assay (Invitrogen). Proteins were separated on a 12% SDS-PAGE gel and transferred to nitrocellulose membrane. Nonspecific protein binding was blocked by incubating with 5% non-fat milk (BioRad Laboratories) in 0.1% PBS-Tween (PBST) at room temperature for 1 h and incubated with specific antibodies, Histone H3 and Ac-H3 [K9/K14] (Cell Signaling), at 4°C overnight. Appropriate species-specific Horseradish peroxidises-conjugated secondary antibodies were then added and incubated at room temperature for 1 h followed by detection using an enhanced chemiluminescence kit (GE Healthcare).

[4] = test system: histone H4 acetylation in peripheral blood mononuclear cells (PBMC) and tumor tissue; set-up: method as in Plumb et al., 2003; conditions: ref Plumb et al., 2003, cited from earlier work
[5] = set-up: method as in protocol pharmaceutical information; conditions: ref protocol pharmaceutical information, cited from earlier work
[6] = cited from earlier work
[7] = set-up: method as in Investigator's Brochure, 2004; conditions: mice, single IP injection of 20 mg/kg, ref Investigator's Brochure, 2004, cited from earlier work
[8] = set-up: method as in Investigator's Brochure, 2004; conditions: arginine formulation, human blood ex vivo; ref Investigator's Brochure, 2004; cited from earlier work
UGT1A1 = biological target: T8, UGT1A1 (Homo sapiens, UniProt P22309); test: UGT supersome screening and kinetic analysis; assay type: in vitro ADME; conditions: 37°C
T8 sequence (P22309 26-533): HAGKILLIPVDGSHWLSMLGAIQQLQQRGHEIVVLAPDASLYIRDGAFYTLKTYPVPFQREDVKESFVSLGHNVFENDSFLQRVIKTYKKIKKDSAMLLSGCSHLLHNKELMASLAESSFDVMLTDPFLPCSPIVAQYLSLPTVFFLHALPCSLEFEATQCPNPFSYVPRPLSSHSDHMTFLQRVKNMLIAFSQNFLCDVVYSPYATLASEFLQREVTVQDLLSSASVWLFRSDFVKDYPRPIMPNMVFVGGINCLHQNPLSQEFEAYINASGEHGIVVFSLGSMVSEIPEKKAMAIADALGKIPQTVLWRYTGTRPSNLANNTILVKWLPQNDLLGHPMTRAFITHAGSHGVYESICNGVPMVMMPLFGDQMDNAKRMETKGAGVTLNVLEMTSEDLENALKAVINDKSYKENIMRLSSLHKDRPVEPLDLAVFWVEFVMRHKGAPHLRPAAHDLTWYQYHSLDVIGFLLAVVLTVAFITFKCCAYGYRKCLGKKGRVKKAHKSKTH
Procedure: Plots of substrate concentration, S (X axis) versus v (Y axis) were then constructed. Km and Vmax were calculated using the Michaelis-Menten equation (GraphPad software, Inc., San Diego, CA, USA).

[9] = set-up: method as in protocol pharmaceutical information; conditions: ref protocol pharmaceutical information; cited from earlier work
CYP1A2 = test system: CYP1A2; set-up: method as in protocol pharmaceutical information; conditions: ref protocol pharmaceutical information; cited from earlier work
[10] = set-up: method as in Investigator's Brochure, 2004; conditions: rats and dogs; ref Investigator's Brochure, 2004; cited from earlier work
CYP2C9 = test system: CYP2C9; set-up: method as in protocol pharmaceutical information; conditions: ref protocol pharmaceutical information; cited from earlier work
[11] = 150 mg/m2, 30-minute IV infusion, ref phase 1 study currently underway
[12] = 300 mg/m2, 30-minute IV infusion, ref phase 1 study currently underway
[13] = 600 mg/m2, 30-minute IV infusion, ref phase 1 study currently underway
[14] = 900 mg/m2, 30-minute IV infusion, ref phase 1 study currently underway
[15] = 1200 mg/m2, 30-minute IV infusion, ref phase 1 study currently underway

T6 sequence (P19224 27-532): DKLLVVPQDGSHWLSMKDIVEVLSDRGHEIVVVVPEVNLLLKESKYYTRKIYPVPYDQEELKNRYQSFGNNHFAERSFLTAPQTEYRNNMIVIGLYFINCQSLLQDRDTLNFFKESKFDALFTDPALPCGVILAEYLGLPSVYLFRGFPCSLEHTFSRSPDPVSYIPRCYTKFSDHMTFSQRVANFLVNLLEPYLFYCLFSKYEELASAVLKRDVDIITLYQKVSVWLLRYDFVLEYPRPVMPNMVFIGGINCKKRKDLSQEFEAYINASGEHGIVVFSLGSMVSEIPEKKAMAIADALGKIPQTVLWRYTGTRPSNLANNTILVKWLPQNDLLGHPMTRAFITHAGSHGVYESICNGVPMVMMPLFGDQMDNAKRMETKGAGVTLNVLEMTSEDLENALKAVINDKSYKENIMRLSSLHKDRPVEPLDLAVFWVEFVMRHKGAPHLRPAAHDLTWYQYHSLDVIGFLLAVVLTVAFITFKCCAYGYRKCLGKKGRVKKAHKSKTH
T4 sequence (Q9HAW8 26-530): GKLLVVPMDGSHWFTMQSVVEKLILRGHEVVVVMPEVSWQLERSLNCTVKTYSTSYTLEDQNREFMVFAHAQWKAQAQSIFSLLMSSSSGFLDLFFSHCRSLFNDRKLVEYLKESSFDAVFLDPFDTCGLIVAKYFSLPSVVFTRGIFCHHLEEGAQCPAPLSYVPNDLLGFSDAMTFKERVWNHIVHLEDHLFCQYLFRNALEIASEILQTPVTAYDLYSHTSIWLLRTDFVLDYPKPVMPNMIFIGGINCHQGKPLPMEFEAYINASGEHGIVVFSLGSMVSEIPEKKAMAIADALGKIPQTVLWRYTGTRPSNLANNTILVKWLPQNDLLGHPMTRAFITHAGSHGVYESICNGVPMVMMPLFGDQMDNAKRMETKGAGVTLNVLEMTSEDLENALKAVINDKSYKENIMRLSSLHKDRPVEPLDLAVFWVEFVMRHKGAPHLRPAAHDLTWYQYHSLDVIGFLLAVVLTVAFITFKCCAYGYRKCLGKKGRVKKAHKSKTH
T2 sequence (Q9HAW7 26-530): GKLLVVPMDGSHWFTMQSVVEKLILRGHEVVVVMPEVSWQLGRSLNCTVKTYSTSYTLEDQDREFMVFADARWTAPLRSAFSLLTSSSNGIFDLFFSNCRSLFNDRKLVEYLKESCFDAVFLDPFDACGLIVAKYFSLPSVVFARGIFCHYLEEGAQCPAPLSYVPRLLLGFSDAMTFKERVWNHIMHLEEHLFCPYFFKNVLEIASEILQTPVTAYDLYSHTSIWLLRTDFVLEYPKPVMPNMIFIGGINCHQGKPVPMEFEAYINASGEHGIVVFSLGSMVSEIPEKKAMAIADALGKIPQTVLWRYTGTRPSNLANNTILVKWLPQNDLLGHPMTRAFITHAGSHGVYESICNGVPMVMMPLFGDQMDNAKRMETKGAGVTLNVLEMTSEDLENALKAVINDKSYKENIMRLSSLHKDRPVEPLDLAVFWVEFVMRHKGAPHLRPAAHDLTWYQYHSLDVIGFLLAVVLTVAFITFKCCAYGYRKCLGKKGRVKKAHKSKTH
T3 sequence (O75795 24-530): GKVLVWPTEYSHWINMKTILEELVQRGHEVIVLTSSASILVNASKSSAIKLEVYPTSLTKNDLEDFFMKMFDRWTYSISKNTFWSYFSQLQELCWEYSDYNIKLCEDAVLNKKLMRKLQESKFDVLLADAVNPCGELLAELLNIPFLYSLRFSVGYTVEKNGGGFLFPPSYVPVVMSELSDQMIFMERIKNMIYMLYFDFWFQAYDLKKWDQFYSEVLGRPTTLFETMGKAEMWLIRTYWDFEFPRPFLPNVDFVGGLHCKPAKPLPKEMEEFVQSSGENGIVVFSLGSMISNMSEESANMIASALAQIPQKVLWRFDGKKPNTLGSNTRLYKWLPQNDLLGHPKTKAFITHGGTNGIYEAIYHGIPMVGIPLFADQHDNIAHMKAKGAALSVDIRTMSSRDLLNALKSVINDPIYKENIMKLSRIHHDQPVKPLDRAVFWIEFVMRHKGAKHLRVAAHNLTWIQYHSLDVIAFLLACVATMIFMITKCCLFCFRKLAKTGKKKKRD
T1 sequence (O60656 26-530): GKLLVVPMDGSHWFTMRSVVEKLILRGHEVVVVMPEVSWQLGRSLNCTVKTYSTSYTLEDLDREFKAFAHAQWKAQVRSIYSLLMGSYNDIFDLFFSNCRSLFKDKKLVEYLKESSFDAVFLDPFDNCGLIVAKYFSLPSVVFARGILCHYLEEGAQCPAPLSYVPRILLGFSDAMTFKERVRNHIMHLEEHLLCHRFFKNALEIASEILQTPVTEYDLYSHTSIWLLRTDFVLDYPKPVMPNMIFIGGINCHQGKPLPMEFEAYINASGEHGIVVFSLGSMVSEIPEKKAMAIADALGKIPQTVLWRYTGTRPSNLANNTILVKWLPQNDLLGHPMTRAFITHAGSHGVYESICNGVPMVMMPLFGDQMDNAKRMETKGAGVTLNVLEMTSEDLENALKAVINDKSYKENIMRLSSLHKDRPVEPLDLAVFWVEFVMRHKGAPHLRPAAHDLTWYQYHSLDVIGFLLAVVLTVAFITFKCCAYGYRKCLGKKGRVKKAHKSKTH
T5 sequence (P22310 29-534): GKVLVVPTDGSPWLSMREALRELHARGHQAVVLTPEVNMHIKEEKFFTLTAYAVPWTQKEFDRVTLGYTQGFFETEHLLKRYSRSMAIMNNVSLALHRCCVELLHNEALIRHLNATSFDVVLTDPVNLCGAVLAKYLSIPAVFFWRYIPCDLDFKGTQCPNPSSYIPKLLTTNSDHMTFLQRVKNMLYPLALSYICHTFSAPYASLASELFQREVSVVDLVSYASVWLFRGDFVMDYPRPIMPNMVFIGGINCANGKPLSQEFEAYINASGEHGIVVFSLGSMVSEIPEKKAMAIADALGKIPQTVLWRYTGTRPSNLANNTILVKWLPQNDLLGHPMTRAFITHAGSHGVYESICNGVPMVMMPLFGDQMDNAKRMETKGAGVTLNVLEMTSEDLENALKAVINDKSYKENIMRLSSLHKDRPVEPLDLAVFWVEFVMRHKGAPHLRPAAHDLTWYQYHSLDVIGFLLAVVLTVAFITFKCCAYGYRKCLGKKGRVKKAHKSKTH
T7 sequence (P54855 24-530): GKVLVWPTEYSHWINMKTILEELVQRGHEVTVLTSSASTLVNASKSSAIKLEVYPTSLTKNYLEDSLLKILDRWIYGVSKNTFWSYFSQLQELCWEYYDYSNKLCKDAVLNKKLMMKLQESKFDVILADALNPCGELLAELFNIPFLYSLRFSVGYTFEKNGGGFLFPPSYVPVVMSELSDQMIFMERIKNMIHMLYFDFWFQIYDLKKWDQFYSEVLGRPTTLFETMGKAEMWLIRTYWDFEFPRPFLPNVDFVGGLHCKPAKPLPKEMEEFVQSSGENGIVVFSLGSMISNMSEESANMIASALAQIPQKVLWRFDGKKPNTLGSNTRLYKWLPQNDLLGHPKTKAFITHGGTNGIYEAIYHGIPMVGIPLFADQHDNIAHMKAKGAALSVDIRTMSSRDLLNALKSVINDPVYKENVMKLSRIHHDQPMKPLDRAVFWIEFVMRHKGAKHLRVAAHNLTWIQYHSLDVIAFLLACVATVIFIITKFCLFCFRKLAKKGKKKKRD

SMILES: O=C(/C=C/c1cccc(S(=O)(=O)Nc2ccccc2)c1)NO [Belinostat, N-hydroxy-3-(phenylsulphamoylphenyl) acrylamide]
- systemic effects [1]: mild
- metabolism by UGT isoform (UGT1A9): no metabolism was observed
- metabolism by UGT isoform (UGT1A7): no metabolism was observed
- metabolism by UGT isoform (UGT2B17): no metabolism was observed
- metabolism by UGT isoform (UGT1A10): no metabolism was observed
- metabolism by UGT isoform (UGT1A4): no metabolism was observed
- metabolism by UGT isoform (UGT1A6): no metabolism was observed
- metabolism by UGT isoform (UGT2B15): no metabolism was observed
- plasma t½ [2]: approximately 40 minutes
- Histone H3 acetylation [3]: time and concentration dependent increase
- histone H4 acetylation in PBMC ([4]; 1 and 2 hours after a single IP injection of 40 mg/kg): Hyperacetylated histone H4 was detected
- time at which acetylation returned to baseline levels ([4]; PBMC, single IP injection of 40 mg/kg): ≤ 3 h
- dose with marked acetylation in both PBMCs and tumor tissue ([4]; mice): ≥ 10 mg/kg
- Approximate Solubility ([5]; 1,2-propanediol): ~ 0.2 mg/mL
- Approximate Solubility ([5]; ethanol): > 200 mg/mL
- Approximate Solubility ([5]; polyethylene glycol 400): ~ 1.5 mg/mL
- Cmax [6, 11]: 6565 ± 2158 ng/mL
- t1/2 [6, 11]: 46.6 ± 8.7 min
- Cmax [6, 12]: 15505 ± 6245 ng/mL
- t1/2 [6, 12]: 44.6 ± 8.0 min
- Cmax [6, 13]: 31177 ± 8968 ng/mL
- t1/2 [6, 13]: 43.4 ± 6.7 min
- dose limiting toxicity (DLT) ([6]; 600 mg/m2/d, six patients, ref on-going phase 1): DLT of severe fatigue
- Cmax [6, 14]: 53779 ± 6381 ng/mL
- t1/2 [6, 14]: 54.2 ± 8.7 min
- Cmax [6, 15]: 52362 ± 12724 ng/mL
- t1/2 [6, 15]: 85.5 ± 19.6 min
- tolerability ([6]; doses ranging from 150 – 1200 mg/m2, ref phase 1 study currently underway): generally been well tolerated
- mean plasma concentration ([7]; after 0.5 hour): 3300 ± 700 nM
- mean plasma concentration ([7]; by 2 hours): 42 ± 2 nM
- hemolysis [8]: No hemolysis
- belinostat converted to belinostat-G (UGT1A1; 2 h incubation with UGT1A1 supersomes): 73.6%
- belinostat converted to belinostat-G (UGT1A1; 4 h incubation with UGT1A1 supersomes): 89.4%
- glucuronidation of belinostat by UGT isoform (UGT1A1; UGT1A1 supersomes, 10 µM belinostat): glucuronidated belinostat significantly
- light stability [9]: no obvious light instability
- CYP1A2 induction (CYP1A2): moderate inducer
- elimination routes of PXD101 and its metabolites [10]: urinary and fecal routes
- CYP2C9 inhibition (CYP2C9): weak to moderate inhibitor
